Patent publication EP0311107A2, “Anti-HIV active 3'-fluoro-purine-2',3'-dideoxyribosides” (priority 1987, dated 1989)
Read-outs that look alike come from different tables or passages of the source. Marks after values point to notes of the source that are not given here.

Experiments:
[1] = target: T1, beef intestine adenosine deaminase (ADA) (Bos taurus, UniProt P56658); settings: data taken from Balzarini, J. et al (1987c); cited from earlier work
T1 construct: Kinetic properties of beef intestine adenosine deaminase for 2,6-diaminopurine 2′,3′-dideoxynucleoside analogues; purchased Boehringer Mannheim, Mannheim, West Germany; host or cells: beef intestine (tissue-derived enzyme)
T1 sequence (P56658 1-363): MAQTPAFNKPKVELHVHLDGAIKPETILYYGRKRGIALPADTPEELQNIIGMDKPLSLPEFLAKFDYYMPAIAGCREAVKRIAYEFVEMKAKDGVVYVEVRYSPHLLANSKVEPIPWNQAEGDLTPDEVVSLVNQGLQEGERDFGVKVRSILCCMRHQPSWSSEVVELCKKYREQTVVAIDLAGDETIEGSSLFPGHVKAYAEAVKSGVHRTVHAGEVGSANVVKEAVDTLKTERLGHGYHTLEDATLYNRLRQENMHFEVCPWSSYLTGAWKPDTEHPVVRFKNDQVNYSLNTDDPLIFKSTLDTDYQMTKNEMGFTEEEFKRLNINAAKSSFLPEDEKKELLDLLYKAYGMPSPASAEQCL

in vitro [2] = assay type: cell-based; settings: human, mt4 cells
Protocol: (§1) For the determination of the cytopathic effect of HIV in human T-lymphocyte MT4 cells, MT4 cells, subcultured one day before the start of the experiment, were adjusted at 5 x 10⁵ cells/ml and infected with HIV (HTLV-IIIB) at 100 CCID₅₀/ml. Then, 100 µl of the infected cell suspension was brought into wells of a microtiter tray containing 100 µl of various dilutions of the test compounds. After 5 days incubation at 37°C, the number of viable cells was recorded microscopically in a hematocytometer by trypan blue exclusion.
Its anti-HIV activity is also higher than that found for its corresponding 2,6-diaminopurine derivative FddDAPR.

HIV (HTLV-IIIB) [3] = assay: HIV-induced cytopathogenicity in MT4 cells (viable cell count by trypan blue exclusion after 5 days); assay type: cell-based; settings: for EC50: Human immunodeficiency virus 1, IIIB; for HIV-induced cytopathogenicity in MT4 cells S.I.: selectivity index, ratio of 50% cytotoxic dose to 50% antivirally effective dose, 7200 min; for anti-HIV activity: HIV-induced cytopathogenicity in MT4 cells, result in words
Protocol: as §1
(§2) A series of novel 2,6-diaminopurine and guanine 2′,3′-dideoxynucleoside analogues in which the 2′,3′-dideoxyribose moiety is substituted by a 3′-fluoro group, or replaced by arabinose or 2′-deoxyxylose were evaluated for their effect on the transformation of C3H mouse embryo cells by Moloney murine sarcoma virus (MSV) (Table 1) and the cytopathogenicity induced by HIV in human T4 lymphocyte MT4 cells (Table 1, Fig. 2).

[4] = test system: Moloney murine sarcoma virus (MSV); assay: MSV-induced C3H cell transformation; assay type: cell-based; settings: for EC50: Moloney murine sarcoma virus, C3H; for MSV-induced C3H cell transformation S.I.: selectivity index, ratio of 50% cytotoxic dose to 50% antivirally effective dose
Protocol: For transformation of C3H mouse embryo cells by Molo ney murine sarcoma virus (MSV), confluent monolayers of C3H cells in 1 ml wells of Tissue Culture Cluster plates were infected wiht 150 foci-forming units of MSV during 90 min, whereafter medium was replaced by 1 ml fresh culture medium containing different concentrations of test compound. After 6-7 days incubation at 37°C, transformation of the cell cultures was monitored microscopically.
as §2

MT4 [5] = assay: Cytostatic effect against MT4 cells; assay type: cell-based; settings: Homo sapiens, read-out: Inhibitory dose-50 MT4
Protocol: (§3) The cultivation of Raji, Molt/4F, CEM, H9, HUT-78 and MT4 cells has been described in Balzarini, J, et al, Biochem. Biophys. Res. Commun. 136:64-71 (1986b) and Pauwels, R. et al, J. Virol. Methods, 16:171-185 (1987).
(§4) The cytostatic effects of the compounds listed in Table 1 were examined against several human B-lymphoblast Raji, T-lymphoblast Molt/4F and T-lymphocyte CEM, H9 and MT4 cell lines (Table 2). […] In no case is the ID₅₀ of the compounds for tumor cell proliferation lower than 60 µM. FddGuo is slightly more cytostatic than FddDAPR (ID₅₀ : 190 to 228 µM, and 233 to >1000 µM, respectively). XylodDAPR and araDAPR are devoid of any anti-cellular activity, even when tested at a concentration as high as 1000 µM.

H9 = assay: Cytostatic effect against H9 cells; assay type: cell-based; settings: Homo sapiens, read-out: Inhibitory dose-50 H9
Protocol: as §3, §4

T-lymphoblast Molt/4F = assay: Cytostatic effect against Molt/4F cells; assay type: cell-based; settings: Homo sapiens, read-out: Inhibitory dose-50 Molt/4F
From the text: The cultivation of Raji, Molt/4F, CEM, H9, HUT-78 and MT4 cells has been described in Balzarini, J, et al, Biochem. Biophys. Res. Commun.
The cytostatic effects of the compounds listed in Table 1 were examined against several human B-lymphoblast Raji, T-lymphoblast Molt/4F and T-lymphocyte CEM, H9 and MT4 cell lines (Table 2).

in vitro [6] = assay type: cell-based; settings: mouse, c3h cells
T-lymphocyte CEM [7] = assay: Cytostatic effect against CEM cells; assay type: cell-based; settings: Homo sapiens, CCRF-CEM, read-out: Inhibitory dose-50 CEM
Protocol: as §3, §4

B-lymphoblast Raji = assay: Cytostatic effect against Raji cells; assay type: cell-based; settings: Homo sapiens, read-out: Inhibitory dose-50 Raji
Protocol: as §3, §4

MT4 [8] = assay: Cytostatic effect against MT4 cells; assay type: cell-based; settings: Homo sapiens, read-out: Inhibitory dose-50 MT4; remark: listed apart in the source
T-lymphocyte CEM [9] = assay: Cytostatic effect against CEM cells; assay type: cell-based; settings: Homo sapiens, read-out: Inhibitory dose-50 CEM
[10] = target: T1, beef intestine adenosine deaminase (ADA); assay: Substrate kinetics for deamination by adenosine deaminase; assay type: biochemical
From the text: All four ddDAPR analogues were examined for their susceptibility to deamination by beef intestine adenosine de aminase (ADA).

HIV (HTLV-IIIB) [11] = settings: earlier report, Balzarini et al (1987b); read-out: 50% effective dose (ED₅₀), inhibition of HIV-replication in MT4 cells; cited from earlier work
[12] = test system: human B-lymphoblast Raji, T-lymphoblast Molt/4F and T-lymphocyte CEM, H9 and MT4 cell lines; assay: Cytostatic effects, summary over the human B- and T-cell lines; assay type: cell-based; settings: range over the cell lines, read-out: ID₅₀ for tumor cell proliferation
Protocol: as §3, §4

HIV = assay: Inhibition of HIV antigen expression in infected H9 or HUT-78 cells (indirect immunofluorescence, laser flow cytofluorography); assay type: cell-based; settings: Human immunodeficiency virus 1, HuT78; H9 and HUT-78 cells; data not shown; read-out: concentration achieving 50% inhibition of HIV-induced antigen expression
From the text: The inhibitory effects of the test compounds on HIV antigen expression in infected H9 or HUT-78 cells were determined at day 8 and 14, respectively after infection, by indirect immunofluorescence and laser flow cytofluorography using a polyclonal antibody as probe, as previously described (Pauwels, R. et al, (1987)).
To confirm our anti-HIV data obtained in the MT4 cell model, we also evaluated the 3′-fluorinated ddDAPR derivatives in two other human T4 lymphocyte cell lines (H9 and HUT-78) for their inhibitory effect on viral antigen expression (data not shown). In these experiments, FddDAPR achieves 50% inhibition of HIV-induced antigen expression at a concentration range of 0.05 - 1.0 µM. This concentration range is lower than that required to inhibit HIV-induced cytopathogenicity in MT4 cells.

[13] = MT4, 120 h, MT4 cells, 5 days at 37°C, read-out: HIV-induced cytopathogenicity in MT4 cells ED₅₀
[14] = C3H cells, 6-7 days at 37°C, read-out: MSV-induced C3H cell transformation ED₅₀
[15] = MT4, presence of DCF (10 µM preincubation)
[16] = MT4, presence of 10 µM DCF (2′-deoxycoformycin), read-out: Effective dose-50 HIV-induced cytopathogenicity in MT4 cells
[17] = MT4, without DCF (Table 3), read-out: Effective dose-50 HIV-induced cytopathogenicity in MT4 cells
[18] = presence of 10 µM DCF (2′-deoxycoformycin), read-out: Effective dose-50 MSV-induced C3H cell transformation
[19] = without DCF (Table 3), read-out: Effective dose-50 MSV-induced C3H cell transformation
[20] = presence of DCF (10 µM preincubation)

Row | EC50 (HIV (HTLV-IIIB) [3]; [13]) | EC50 [4, 14] | IC50 (H9) | IC50 (T-lymphoblast Molt/4F; Molt/4F) | IC50 (T-lymphocyte CEM [7]) | IC50 (B-lymphoblast Raji) | Vmax [10] | SMILES | Vmax [1] | CC50 at 120 h (in vitro [2]) | HIV-induced cytopathogenicity in MT4 cells S.I. (HIV (HTLV-IIIB) [3]) | MSV-induced C3H cell transformation S.I. [4] | IC50 (MT4 [5]) | CC50 (in vitro [6]) | also measured
1 |  |  |  |  |  |  |  | Nc1ncnc2c1ncn2[C@H]1CC[C@@H](CO)O1 [ddAdo, 2′,3′-dideoxyadenosine] | 262^a µmole/mg proten/min |  |  |  |  |  | 
2 | 7.6 µM | 72 µM | 531 µM | 380 µM | 142 µM | 903 µM |  | Nc1nc2c(ncn2[C@H]2CC[C@@H](CO)O2)c(=O)[nH]1 [ddGuo, 2′,3′-Dideoxyguanosine] |  | 486 µM | 64 | > 5.5 | 942 µM | > 400 µM | 
3 | 2.4 µM | 12 µM | 194 µM | 228 µM | 119 µM | 107 µM |  | Nc1nc2c(ncn2[C@H]2C[C@H](F)[C@@H](CO)O2)c(=O)[nH]1 [FddGuo, 3′-fluoro-2′,3′-dideoxyguanosine] |  | 231 µM | 96 | > 23 | 197 µM | > 400 µM | IC50 [12]: 190 to 228 µM
4 |  |  |  |  |  |  |  | Nc1ncnc2c1ncn2[C@@H]1O[C@H](CO)[C@@H](O)[C@H]1O [Ado, adenosine] | 287^a µmole/mg proten/min |  |  |  |  |  | 
5 | > 125 µM | > 400 µM | > 1000 µM | > 1000 µM | > 1000 µM | > 1000 µM | 3.7 µmole/mg proten/min | Nc1nc(N)c2ncn([C@H]3C[C@@H](O)[C@@H](CO)O3)c2n1 [XylodDAPR] |  | > 625 µM |  |  | > 1000 µM | > 400 µM | anti-HIV activity (HIV (HTLV-IIIB) [3]): devoid of any anti-HIV activity
6 | 4.5 µM | 28 µM | 377 µM | 425 µM | 233 µM | 753 µM | 31 µmole/mg proten/min | Nc1nc(N)c2ncn([C@H]3C[C@H](F)[C@@H](CO)O3)c2n1 [FddDAPR, 3′-fluoro-2,6-diaminopurine 2′,3′-dideoxyriboside] |  | 360 µM | 80 | > 15 | 337 µM | > 400 µM | IC50 (MT4 [8]; [15]): 520 µM; IC50 (MT4 [8]; MT4, without DCF (Table 4)): 469 µM; EC50 (HIV (HTLV-IIIB) [3]; [16]): 39 µM; EC50 (HIV (HTLV-IIIB) [3]; [17]): 4.5 µM; EC50 [4, 18]: 87 µM; EC50 [4, 19]: 31 µM; IC50 (T-lymphocyte CEM [9]; [20]): 739 µM; IC50 (T-lymphocyte CEM [9]; without DCF (Table 4)): 241 µM; IC50 (T-lymphoblast Molt/4F; [20]): 865 µM; IC50 (T-lymphoblast Molt/4F; without DCF (Table 4)): 353 µM; EC50 (HIV): 0.05 to 1 µM

Row | SMILES | EC50 (HIV (HTLV-IIIB) [3]; [13]) | EC50 [4, 14] | IC50 (H9) | IC50 (T-lymphoblast Molt/4F; Molt/4F) | IC50 (T-lymphocyte CEM [7]) | IC50 (B-lymphoblast Raji) | Vmax [10] | Vmax [1] | CC50 at 120 h (in vitro [2]) | HIV-induced cytopathogenicity in MT4 cells S.I. (HIV (HTLV-IIIB) [3]) | MSV-induced C3H cell transformation S.I. [4] | IC50 (MT4 [5]) | CC50 (in vitro [6]) | also measured
7 | Nc1nc(N)c2ncn([C@H]3CC[C@@H](CO)O3)c2n1 [ddDAPR, 2,6-Diamino-9-(2,3-dideoxy-β-D-glycero-pentofuranosyl)purine] | 3.8 µM | 19 µM | 466 µM |  | 125 µM | 324 µM |  | 8.2^a µmole/mg proten/min | 404 µM | 106 | ≧ 11 | 644 µM | ≥ 200 µM | IC50 (MT4 [8]; [15]): > 1000 µM; IC50 (MT4 [8]; MT4, without DCF (Table 4)): > 1000 µM; Km [1]: 29 µM; EC50 (HIV (HTLV-IIIB) [3]; [16]): 13 µM; EC50 (HIV (HTLV-IIIB) [3]; [17]): 3.8 µM; EC50 [4, 18]: 84 µM; EC50 [4, 19]: 23 µM; IC50 (T-lymphocyte CEM [9]; [20]): > 1000 µM; IC50 (T-lymphocyte CEM [9]; without DCF (Table 4)): 128 µM; IC50 (T-lymphoblast Molt/4F; [20]): > 1000 µM; IC50 (T-lymphoblast Molt/4F; without DCF (Table 4)): 220 µM; Vmax relative to that observed for Ado [10]: 3%; EC50 (HIV (HTLV-IIIB) [11]): 2.5 to 3.6 µM
8 | Nc1nc(N)c2ncn([C@@H]3O[C@H](CO)[C@@H](O)[C@@H]3O)c2n1 [araDAPR, 9-β-D-arabinofuranosyl 2,6-diaminopurine] | > 125 µM | > 400 µM | > 1000 µM | > 1000 µM | > 1000 µM | > 1000 µM | 5.9 µmole/mg proten/min |  | > 625 µM |  |  | > 1000 µM | > 400 µM | anti-HIV activity (HIV (HTLV-IIIB) [3]): devoid of any anti-HIV activity; Km [10]: 83 µM
